Key:
[1] = test system: HBV (HepG2 AD38 genotype D); assay: Combination of Compound 1 with tenofovir in HBV-infected primary human hepatocytes (MacSynergy II); type: cell-based, hepatitis B virus; conditions: summary of studies
Protocol: In two sets of experiments, the effect of combining Compound 1 with tenofovir was studied. Effects of the drug combination were calculated based on the activity of the two compounds when tested alone. The expected additive antiviral protection (based on the dose response curves of the individual agents used alone) was subtracted from the experimentally determined antiviral activity at each combination concentration resulting in a positive value (synergy), a negative value (antagonism), or zero (additivity). […] The results of the combination assays were expressed as a synergy volume μM2% calculated at the 95% confidence interval using the MacSynergy II template.
For these studies, synergy was defined as drug combinations yielding synergy volumes greater than 50 μM2%. Slightly synergistic activity and highly synergistic activity have been defined as yielding synergy volumes of […] and >100 μM2%, respectively.
Synergy volumes between −50 and 50 μM2% were considered additive and synergy volumes less than −50 μM2% were considered antagonistic.

Human NTCP = molecular target: T1, Human NTCP (Homo sapiens, UniProt Q14973); assay: [3H]taurocholate uptake in hNTCP-transfected CHO cells, apparent Ki and type of inhibition; type: cell-based
T1 construct: expressed in transfected cells; peptide purchased from Pharmaron
T1 sequence (Q14973 1-349): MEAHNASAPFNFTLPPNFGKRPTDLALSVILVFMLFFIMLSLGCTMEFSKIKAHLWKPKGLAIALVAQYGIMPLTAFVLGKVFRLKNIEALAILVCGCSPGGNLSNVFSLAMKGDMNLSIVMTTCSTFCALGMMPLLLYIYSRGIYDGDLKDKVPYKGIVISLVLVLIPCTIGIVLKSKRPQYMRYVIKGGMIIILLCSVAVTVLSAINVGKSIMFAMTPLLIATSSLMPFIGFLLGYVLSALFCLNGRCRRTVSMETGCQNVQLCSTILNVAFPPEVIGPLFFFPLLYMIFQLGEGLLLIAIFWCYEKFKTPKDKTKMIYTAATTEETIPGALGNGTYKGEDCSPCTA
Protocol: Stably hNTCP-transfected CHO cells were seeded onto 24 well plates. After overnight incubation, CHO cells were treated with 10 mM sodium butyrate to induce NTCP transporter expression. Twenty-four hours later, media was aspirated, cells were washed with warm Hanks balanced salt solution (HBSS) containing sodium (+Na). Cells were incubated with increasing doses of Compound 1 (for example: 0, 10 nM, 100 nM, 1 μM, 10 μM), in the presence of tracer doses of 5 μm, 10 μM, or 25 μM [^3H]taurocholate at 37° C. for <10 minutes. The cells were processed for radioactivity. The apparent Ki and kinetic types of inhibition (competitive, uncompetitive, non-competitive, mixed) were determined by complementary Dixon/Cornish-Bowden plot analysis and Lineweaver-Burk plot analysis.

ASBT = molecular target: T2, ASBT (Homo sapiens, UniProt Q12908); assay: [3H]taurocholate uptake, apparent Ki for ASBT; type: cell-based; conditions: read-out: inhibitory constant (Ki) for ASBT
T2 construct: expressed in transfected cells
T2 sequence (Q12908 1-348): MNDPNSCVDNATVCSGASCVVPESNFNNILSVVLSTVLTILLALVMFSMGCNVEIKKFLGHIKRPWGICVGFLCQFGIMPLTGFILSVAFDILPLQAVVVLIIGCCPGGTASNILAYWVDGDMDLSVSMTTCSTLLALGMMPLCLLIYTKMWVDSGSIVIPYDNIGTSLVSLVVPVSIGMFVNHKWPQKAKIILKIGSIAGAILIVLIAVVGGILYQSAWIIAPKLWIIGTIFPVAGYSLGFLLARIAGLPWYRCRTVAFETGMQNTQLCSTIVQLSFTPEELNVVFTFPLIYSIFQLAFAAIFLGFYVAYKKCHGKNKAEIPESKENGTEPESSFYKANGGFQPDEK

Mouse IBAT = molecular target: T3, Mouse IBAT (Mus musculus, UniProt P70172); assay: 3H-taurocholic acid uptake in mouse IBAT-overexpressing cells; type: cell-based; conditions: 3H-taurocholic acid transport
T3 construct: expressed in transfected cells; kept under puromycin selection
T3 sequence (P70172 1-348): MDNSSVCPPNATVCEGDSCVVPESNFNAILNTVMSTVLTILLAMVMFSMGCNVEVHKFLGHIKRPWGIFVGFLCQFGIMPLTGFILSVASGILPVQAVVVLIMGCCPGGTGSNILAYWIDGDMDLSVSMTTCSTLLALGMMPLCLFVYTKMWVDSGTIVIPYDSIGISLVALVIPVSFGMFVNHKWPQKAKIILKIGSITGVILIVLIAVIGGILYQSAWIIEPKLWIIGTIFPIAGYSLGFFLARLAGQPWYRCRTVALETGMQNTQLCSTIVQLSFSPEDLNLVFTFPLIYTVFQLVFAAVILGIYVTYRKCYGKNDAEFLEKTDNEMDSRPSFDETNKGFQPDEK
Protocol: 10,000 cells (Human & Mouse IBAT-overexpressing cells) were seeded in 96-wells plate in 100 μL MEM-alpha medium supplemented with 10% FBS containing puromycin (10 μg/mL) and incubated at 37° C. in 5% CO2 for 48 hrs. After incubation media was decanted from the wells, cells were washed two times with 250 μL of basal MEM-alpha medium (FBS-free). After each wash, plates were tapped against paper towel to ensure maximum removal of residual media. Test inhibitor dilutions (highest test concentration being 10 μM, 3-fold serial dilution, 10 concentrations) prepared in DMSO were added to the incubation mix (maintaining 0.2% final DMSO concentration) containing 0.25 μM ^3H-taurocholic acid and 5 μM of cold taurocholic acid. […]
After incubation, the reaction was stopped by keeping the plates on ice water mix for 2-3 minutes and then the incubation mix was aspirated completely from the wells. […] 100 μL of MicroScint-20 was added to the wells and kept overnight at room temperature before reading the plates in MicroBeta2 liquid Scintillation Counter from PerkinElmer under ^3H Test for I/L-BAT protocol (set at 120 seconds reading time per well, with normal plate orientation).
Percentage inhibitions were calculated with respect to the assay controls. […]

In the case of `CCCCC1CN(c2ccccc2)c2cc(SC)c(O/C=C(\F)C(=O)O)cc2S(=O)(=O)N1C` (centres unmarked) [Compound 1, (Z)-3-((3-butyl-2-methyl-7-(methylthio)-1,1-dioxido-5-phenyl-2,3,4,5-tetrahydro-1,2,5-benzothiadiazepin-8-yl)oxy)-2-fluoroacrylic acid], the “antiviral effect when given together with tenofovir disoproxil fumarate” value [1] is reported as “additive”, the “kinetic type of inhibition of transporter activity” value (Human NTCP; Dixon/Cornish-Bowden and Lineweaver-Burk analysis, NTCP and ASBT) is reported as “competitive inhibitor” and the Ki (Human NTCP; [3H]taurocholate, CHO cells, read-out: inhibitory constant (Ki) for human NTCP) is reported as 0.015 µM. For the same compound, the Ki (ASBT) was 2.41 µM and the IC50 (Mouse IBAT) was 0.0408 ± 0.0046 µM.

Reference: patent US20230398125A1, “TREATING HEPATITIS” (Albireo AB, priority 2022, published 2023)
